Data from US20230265151A1, “GIP/GLP1 CO-AGONIST COMPOUNDS” (priority 2020, published 2023).
Read-outs that look alike come from different tables or passages of the source.

Columns and labels:
Assay type in all cases: cell-based
hGLP-1R = hGLP-1R (Homo sapiens, UniProt P43220); assay: Functional cAMP formation (HTRF) in HEK-293 clonal cells expressing hGLP-1R, 0.1% bovine casein, without or with 1.0% human serum albumin; parameters: expressed in transfected cells; settings: 37° C.; for Emax: HEK293, cAMP, percent of maximal response to GLP-1(7-36)NH2, read-out: hGLP-1R Emax, % ± SEM; for EC50: cAMP, 0.1% bovine casein (no human serum albumin), geometric mean, read-out: hGLP-1R EC50, nM (SEM, n)
Chain of hGLP-1R (P43220 24-463): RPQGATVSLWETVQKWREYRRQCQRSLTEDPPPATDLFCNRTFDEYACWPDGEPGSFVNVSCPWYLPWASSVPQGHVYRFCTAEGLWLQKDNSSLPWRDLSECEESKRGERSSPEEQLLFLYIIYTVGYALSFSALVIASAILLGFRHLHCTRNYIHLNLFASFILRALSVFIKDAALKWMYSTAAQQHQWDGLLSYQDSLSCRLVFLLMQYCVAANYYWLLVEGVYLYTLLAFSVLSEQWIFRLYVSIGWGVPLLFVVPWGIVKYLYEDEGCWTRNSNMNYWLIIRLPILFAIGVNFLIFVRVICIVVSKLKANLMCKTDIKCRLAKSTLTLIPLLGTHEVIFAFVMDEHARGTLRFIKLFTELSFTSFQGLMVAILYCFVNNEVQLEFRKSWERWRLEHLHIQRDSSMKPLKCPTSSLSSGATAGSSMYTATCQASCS
In short: (§1)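 Cells were stimulated with peptide for 30 min at 37° C, then intracellular cAMP was measured by competitive HTRF (665/620 nm ratio) and converted to nM using a cAMP standard curve. Relative EC50 and Emax came from four-parameter logistic fits of percent maximal response against peptide concentration.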

hGCGR = target: T1, hGCGR (Homo sapiens, UniProt P47871); assay: Functional cAMP formation (HTRF) in HEK-293 clonal cells expressing hGCGR, 0.1% bovine casein, without or with 1.0% human serum albumin; settings: cAMP, 37° C., read-out: hGCGR EC50, nM (SEM, n)
T1 construct: expressed in transfected cells
T1 sequence (P47871 26-477): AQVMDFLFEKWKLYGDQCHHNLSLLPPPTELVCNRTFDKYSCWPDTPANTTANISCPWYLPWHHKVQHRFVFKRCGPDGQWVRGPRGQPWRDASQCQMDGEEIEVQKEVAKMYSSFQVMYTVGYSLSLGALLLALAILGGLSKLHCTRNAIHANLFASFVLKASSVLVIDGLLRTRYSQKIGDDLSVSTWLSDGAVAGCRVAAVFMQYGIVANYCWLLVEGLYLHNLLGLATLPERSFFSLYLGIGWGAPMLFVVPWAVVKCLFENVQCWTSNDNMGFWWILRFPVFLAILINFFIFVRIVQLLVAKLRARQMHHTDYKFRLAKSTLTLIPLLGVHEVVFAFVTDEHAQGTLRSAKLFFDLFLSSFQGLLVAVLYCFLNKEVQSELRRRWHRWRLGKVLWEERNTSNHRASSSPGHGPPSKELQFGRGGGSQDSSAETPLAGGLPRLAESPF
In short: as §1

hGIPR = target: T2, hGIPR (Homo sapiens, UniProt P48546); assay: Functional cAMP formation (HTRF) in HEK-293 clonal cells expressing hGIPR, 0.1% bovine casein, without or with 1.0% human serum albumin; settings: 37° C.; for Emax: HEK293, cAMP, percent of maximal response to GIP(1-42)NH2, read-out: hGIPR Emax, % ± SEM; for EC50: cAMP, read-out: hGIPR EC50, nM (SEM, n)
T2 construct: expressed in transfected cells
T2 sequence (P48546 22-466): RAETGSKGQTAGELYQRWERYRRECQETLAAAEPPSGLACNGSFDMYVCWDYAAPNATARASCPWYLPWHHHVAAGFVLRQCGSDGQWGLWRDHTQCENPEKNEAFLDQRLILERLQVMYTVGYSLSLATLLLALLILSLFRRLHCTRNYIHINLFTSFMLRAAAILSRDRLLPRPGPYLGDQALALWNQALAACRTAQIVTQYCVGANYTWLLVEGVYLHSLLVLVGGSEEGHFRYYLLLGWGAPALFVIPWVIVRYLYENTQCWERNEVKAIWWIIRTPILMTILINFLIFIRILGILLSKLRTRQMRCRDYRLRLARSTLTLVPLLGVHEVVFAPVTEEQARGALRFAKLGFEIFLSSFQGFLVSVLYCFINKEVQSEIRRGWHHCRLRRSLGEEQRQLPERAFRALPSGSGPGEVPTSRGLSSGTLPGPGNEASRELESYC
In short: as §1

[1] = 0.1% bovine casein and 1.0% human serum albumin
[2] = 0.1% bovine casein, arithmetic mean
[3] = 0.1% bovine casein (no human serum albumin), geometric mean
[4] = 0.1% bovine casein and 1.0% human serum albumin, geometric mean (SEM, n)

CC[C@H](C)[C@H](NC(=O)[C@H](CC(C)C)NC(=O)[C@](C)(Cc1ccc(O)cc1)NC(=O)[C@@H](CCC(=O)O)NC(=O)[C@@H](NC(=O)[C@H](Cc1ccccc1)NC(=O)[C@H](CCCCNC(=O)COCCOCCNC(=O)COCCOCCNC(=O)CCCCCCCCCCCCC(=O)O)NC(=O)C(C)(C)NC(=O)[C@H](CCC(N)=O)NC(=O)[C@H](C)NC(=O)[C@H](CCCCNC(=O)COCCOCCNC(=O)COCCOCCNC(=O)CCCCCCCCCCCCC(=O)O)NC(=O)[C@H](CCCN)NC(=O)[C@H](CC(=O)O)NC(=O)[C@H](CC(C)C)NC(=O)[C@](C)(CC(C)C)NC(=O)[C@@H](NC(=O)C(C)(C)NC(=O)[C@H](Cc1ccc(O)cc1)NC(=O)[C@H](CC(=O)O)NC(=O)[C@H](CO)NC(=O)[C@@H](NC(=O)[C@](C)(Cc1ccccc1F)NC(=O)[C@@H](NC(=O)CNC(=O)[C@H](CCC(=O)O)NC(=O)C(C)(C)NC(=O)[C@@H](N)Cc1ccc(O)cc1)[C@@H](C)O)[C@@H](C)O)[C@@H](C)CC)[C@@H](C)CC)C(=O)N[C@@H](CCC(=O)O)C(=O)NCC(=O)NCC(=O)N1CCC[C@H]1C(=O)N[C@@H](CO)C(=O)N[C@@H](CO)C(=O)NCC(=O)N[C@@H](C)C(=O)N1CCC[C@H]1C(=O)N1CCC[C@H]1C(=O)N1CCC[C@H]1C(=O)N[C@@H](CO)C(N)=O [Example 385]
Emax (hGLP-1R; [1]): 112%
Emax (hGLP-1R; [2]): 100%
EC50 (hGLP-1R): 0.189 nM
EC50 (hGCGR; [3]): > 9950 nM
EC50 (hGCGR; [4]): > 9950 nM
Emax (hGIPR; [1]): 83.5%
Emax (hGIPR; [2]): 95.2%
EC50 (hGIPR; [3]): 0.0154 nM

CC[C@H](C)[C@H](NC(=O)[C@H](CC(C)C)NC(=O)[C@](C)(Cc1ccc(O)cc1)NC(=O)[C@@H](CCC(=O)O)NC(=O)[C@@H](NC(=O)[C@H](Cc1ccccc1)NC(=O)[C@H](CCCCNC(=O)COCCOCCNC(=O)COCCOCCNC(=O)CCCCCCCCCCCCC(=O)O)NC(=O)C(C)(C)NC(=O)[C@H](CCC(N)=O)NC(=O)[C@H](C)NC(=O)[C@H](CCCCNC(=O)COCCOCCNC(=O)COCCOCCNC(=O)CCCCCCCCCCCCC(=O)O)NC(=O)[C@H](CCCN)NC(=O)[C@H](CC(=O)O)NC(=O)[C@H](CC(C)C)NC(=O)[C@](C)(CC(C)C)NC(=O)[C@@H](NC(=O)C(C)(C)NC(=O)[C@@H](NC(=O)[C@H](CC(=O)O)NC(=O)[C@H](CO)NC(=O)[C@@H](NC(=O)[C@](C)(Cc1ccccc1F)NC(=O)[C@@H](NC(=O)CNC(=O)[C@H](CCC(=O)O)NC(=O)C(C)(C)NC(=O)[C@@H](N)Cc1ccc(O)cc1)[C@@H](C)O)[C@@H](C)O)C(C)C)[C@@H](C)CC)[C@@H](C)CC)C(=O)N[C@@H](CCC(=O)O)C(=O)NCC(=O)NCC(=O)N1CCC[C@H]1C(=O)N[C@@H](CO)C(=O)N[C@@H](CO)C(=O)NCC(=O)N[C@@H](C)C(=O)N1CCC[C@H]1C(=O)N1CCC[C@H]1C(=O)N1CCC[C@H]1C(=O)N[C@@H](CO)C(N)=O [Example 386]
Emax (hGLP-1R; [1]): 96.8%
Emax (hGLP-1R; [2]): 98.9%
EC50 (hGLP-1R): 0.194 nM
EC50 (hGCGR; [3]): > 9950 nM
EC50 (hGCGR; [4]): > 9950 nM
Emax (hGIPR; [1]): 81.3%
Emax (hGIPR; [2]): 95.7%
EC50 (hGIPR; [3]): 0.0174 nM
EC50 (hGIPR; [4]): 2.08 nM
